Structures can show the parent of a compound that is named as a salt.
SMILES	melting point
N[C@@H](CSSC[C@H](N)C(=O)N1CCn2nc(-c3ccccc3)cc2[C@@H]1CC1CCCCC1)C(=O)N1CCn2nc(-c3ccccc3)cc2[C@@H]1CC1CCCCC1 (as salt: hydrochloride) [Example 24, (2R)-3-({(2R)-2-amino-3-[(4S)-4-(cyclohexylmethyl)-2-phenyl-6,7-dihydropyrazolo[1,5-a]pyrazin-5(4H)-yl]-3-oxopropyl}dithio)-1-[(4S)-4-(cyclohexylmethyl)-2-phenyl-6,7-dihydropyrazolo[1,5-a]pyrazin-5(4H)-yl]-1-oxopropan-2-amine hydrochloride]	214 to 219 °C
N[C@@H](CSSC[C@H](N)C(=O)N1CCn2nc(-c3ccccc3)cc2[C@H]1CC1CCCCC1)C(=O)N1CCn2nc(-c3ccccc3)cc2[C@H]1CC1CCCCC1 (as salt: hydrochloride) [Example 26, (1R)-3-({(2R)-2-amino-3-[(4R)-4-(cyclohexylmethyl)-2-phenyl-6,7-dihydropyrazolo[1,5-a]pyrazin-5(4H)-yl]-3-oxopropyl}dithio)-1-[(4R)-4-(cyclohexylmethyl)-2-phenyl-6,7-dihydropyrazolo[1,5-a]pyrazin-5(4H)-yl]-1-oxopropan-2-amine hydrochloride]	212 to 217 °C
CC(C)(C)OC(=O)N[C@@H](C[Se][Se]C[C@H](NC(=O)OC(C)(C)C)C(=O)N1CCn2nc(-c3ccccc3)cc2C1CC1CCCCC1)C(=O)N1CCn2nc(-c3ccccc3)cc2C1CC1CCCCC1 (mixture of isomers)	117 to 120 °C
N[C@@H](C[Se][Se]C[C@H](N)C(=O)N1CCn2nc(-c3ccccc3)cc2C1CC1CCCCC1)C(=O)N1CCn2nc(-c3ccccc3)cc2C1CC1CCCCC1 (mixture of isomers) (as salt: hydrochloride)	217 to 220 °C (dec.)
N[C@@H](CSSC[C@H](N)C(=O)N1CCn2nc(-c3ccccc3)cc2C1CC1CCCCC1)C(=O)N1CCn2nc(-c3ccccc3)cc2C1CC1CCCCC1 (mixture of isomers) (as salt: hydrochloride) [Example 12, (2R)-3-({(2R)-2-amino-3-[(4RS)-4-(cyclohexylmethyl)-2-phenyl-6,7-dihydropyrazolo[1,5-a]pyrazin-5(4H)-yl]-3-oxopropyl}dithio)-1-[(4RS)-4-(cyclohexylmethyl)-2-phenyl-6,7-dihydropyrazolo[1,5-a]pyrazin-5(4H)-yl]-1-oxopropan-2-amine hydrochloride]	218 °C (dec.)
N[C@@H](CSSC[C@H](N)C(=O)N1CCn2nc(-c3ccccc3)cc2C1CCc1ccccc1)C(=O)N1CCn2nc(-c3ccccc3)cc2C1CCc1ccccc1 (mixture of isomers) (as salt: hydrochloride) [Example 13, (2R)-3-({(2R)-2-amino-3-oxo-3-[(4RS)-2-phenyl-4-(2-phenylethyl)-6,7-dihydropyrazolo[1,5-a]pyrazin-5(4H)-yl]propyl}dithio)-1-oxo-1-[(4RS)-2-phenyl-4-(2-phenylethyl)-6,7-dihydropyrazolo[1,5-a]pyrazin-5(4H)-yl]propan-2-amine hydrochloride]	208 °C (dec.)
N[C@@H](CSSC[C@H](N)C(=O)N1CCn2nc(-c3ccncc3)cc2C1CCc1ccccc1)C(=O)N1CCn2nc(-c3ccncc3)cc2C1CCc1ccccc1 (mixture of isomers) (as salt: hydrochloride) [Example 14, (2R)-3-({(2R)-2-amino-3-oxo-3-[(4RS)-4-(2-phenylethyl)-2-pyridin-4-yl-6,7-dihydropyrazolo[1,5-a]pyrazin-5(4H)-yl]propyl}dithio)-1-oxo-1-[(4RS)-4-(2-phenylethyl)-2-pyridin-4-yl-6,7-dihydropyrazolo[1,5-a]pyrazin-5(4H)-yl]propan-2-amine hydrochloride]	227 °C (dec.)
N[C@@H](CSSC[C@H](N)C(=O)N1CCn2nc(-c3cccnc3)cc2C1CCc1ccccc1)C(=O)N1CCn2nc(-c3cccnc3)cc2C1CCc1ccccc1 (mixture of isomers) (as salt: hydrochloride) [Example 15, (2R)-3-({(2R)-2-amino-3-oxo-3-[(4RS)-4-(2-phenylethyl)-2-pyridin-3-yl-6,7-dihydropyrazolo[1,5-a]pyrazin-5(4H)-yl]propyl}dithio)-1-oxo-1-[(4RS)-4-(2-phenylethyl)-2-pyridin-3-yl-6,7-dihydropyrazolo[1,5-a]pyrazin-5(4H)-yl]propan-2-amine hydrochloride]	223 °C (dec.)
N[C@@H](CSSC[C@H](N)C(=O)N1CCn2nc(-c3ccc4c(c3)OCO4)cc2C1CCc1ccccc1)C(=O)N1CCn2nc(-c3ccc4c(c3)OCO4)cc2C1CCc1ccccc1 (mixture of isomers) (as salt: hydrochloride) [Example 16, (2R)-3-({(2R)-2-amino-3-[(4RS)-2-(1,3-benzodioxol-5-yl)-4-(2-phenylethyl)-6,7-dihydropyrazolo[1,5-a]pyrazin-5(4H)-yl]-3-oxopropyl}dithio)-1-[(4RS)-2-(1,3-benzodioxol-5-yl)-4-(2-phenylethyl)-6,7-dihydropyrazolo[1,5-a]pyrazin-5(4H)-yl]-1-oxopropan-2-amine hydrochloride]	221 °C (dec.)
COc1cc(-c2cc3n(n2)CCN(C(=O)[C@@H](N)CSSC[C@H](N)C(=O)N2CCn4nc(-c5cc(OC)c(OC)c(OC)c5)cc4C2CCc2ccccc2)C3CCc2ccccc2)cc(OC)c1OC (mixture of isomers) (as salt: hydrochloride) [Example 17, (2R)-3-({(2R)-2-amino-3-oxo-3-[(4RS)-4-(2-phenylethyl)-2-(3,4,5-trimethoxyphenyl)-6,7-dihydropyrazolo[1,5-a]pyrazin-5(4H)-yl]propyl}dithio)-1-oxo-1-[(4RS)-4-(2-phenylethyl)-2-(3,4,5-trimethoxyphenyl)-6,7-dihydropyrazolo[1,5-a]pyrazin-5(4H)-yl]propan-2-amine hydrochloride]	211 °C (dec.)
N[C@@H](CSSC[C@H](N)C(=O)N1CCn2nc(-c3cccs3)cc2C1CCc1ccccc1)C(=O)N1CCn2nc(-c3cccs3)cc2C1CCc1ccccc1 (mixture of isomers) (as salt: hydrochloride) [Example 18, (2R)-3-({(2R)-2-amino-3-oxo-3-[(4RS)-4-(2-phenylethyl)-2-(2-thienyl)-6,7-dihydropyrazolo[1,5-a]pyrazin-5(4H)-yl]propyl}dithio)-1-oxo-1-[(4RS)-4-(2-phenylethyl)-2-(2-thienyl)-6,7-dihydropyrazolo[1,5-a]pyrazin-5(4H)-yl]propan-2-amine hydrochloride]	218 °C (dec.)
N[C@@H](CSSC[C@H](N)C(=O)N1CCn2nc(-c3ccco3)cc2C1CCc1ccccc1)C(=O)N1CCn2nc(-c3ccco3)cc2C1CCc1ccccc1 (mixture of isomers) (as salt: hydrochloride) [Example 19, (2R)-3-({(2R)-2-amino-3-[(4RS)-2-(2-furyl)-4-(2-phenylethyl)-6,7-dihydropyrazolo[1,5-a]pyrazin-5(4H)-yl]-3-oxopropyl}dithio)-1-[(4RS)-2-(2-furyl)-4-(2-phenylethyl)-6,7-dihydropyrazolo[1,5-a]pyrazin-5(4H)-yl]-1-oxopropan-2-amine hydrochloride]	207 °C (dec.)
CCCCCC1c2cc(-c3ccccc3)nn2CCN1C(=O)[C@@H](N)CSSC[C@H](N)C(=O)N1CCn2nc(-c3ccccc3)cc2C1CCCCC (mixture of isomers) (as salt: hydrochloride) [Example 20, (2R)-3-({(2R)-2-amino-3-oxo-3-[(4RS)-4-pentyl-2-phenyl-6,7-dihydropyrazolo[1,5-a]pyrazin-5(4H)-yl]propyl}dithio)-1-oxo-1-[(4RS)-4-pentyl-2-phenyl-6,7-dihydropyrazolo[1,5-a]pyrazin-5(4H)-yl]propan-2-amine hydrochloride]	199 to 204 °C (dec.)
CCCCC1c2cc(-c3ccccc3)nn2CCN1C(=O)[C@@H](N)CSSC[C@H](N)C(=O)N1CCn2nc(-c3ccccc3)cc2C1CCCC (mixture of isomers) (as salt: hydrochloride) [Example 21, (2R)-3-({(2R)-2-amino-3-[(4RS)-4-butyl-2-phenyl-6,7-dihydropyrazolo[1,5-a]pyrazin-5(4H)-yl]-3-oxopropyl}dithio)-1-[(4RS)-4-butyl-2-phenyl-6,7-dihydropyrazolo[1,5-a]pyrazin-5(4H)-yl]-1-oxopropan-2-amine hydrochloride]	210 to 215 °C (dec.)
N[C@@H](CSSC[C@H](N)C(=O)N1CCn2nc(-c3ccc(Cl)cc3Cl)cc2C1CCc1ccccc1)C(=O)N1CCn2nc(-c3ccc(Cl)cc3Cl)cc2C1CCc1ccccc1 (mixture of isomers) (as salt: hydrochloride) [Example 22, (2R)-3-({(2R)-2-amino-3-[(4RS)-2-(2,4-dichlorophenyl)-4-(2-phenylethyl)-6,7-dihydropyrazolo[1,5-a]pyrazin-5(4H)-yl]-3-oxopropyl}dithio)-1-[(4RS)-2-(2,4-dichlorophenyl)-4-(2-phenylethyl)-6,7-dihydropyrazolo[1,5-a]pyrazin-5(4H)-yl]-1-oxopropan-2-amine hydrochloride]	198 to 202 °C
N[C@@H](CSSC[C@H](N)C(=O)N1CCCn2nc(-c3ccccc3)cc2C1CC1CCCCC1)C(=O)N1CCCn2nc(-c3ccccc3)cc2C1CC1CCCCC1 (mixture of isomers) (as salt: hydrochloride) [Example 28, {(1R)-1-[({(2R)-2-amino-3-[(4RS)-4-(cyclohexylmethyl)-2-phenyl-7,8-dihydro-4H-pyrazolo[1,5-a][1,4]diazepin-5(6H)-yl]-3-oxopropyl}dithio)methyl]-2-[(4RS)-4-(cyclohexylmethyl)-2-phenyl-7,8-dihydro-4H-pyrazolo[1,5-a][1,4]diazepin-5(6H)-yl]-2-oxoethyl}amine hydrochloride]	198 to 208 °C
N[C@@H](CSSC[C@H](N)C(=O)N1CCn2nc(-c3ccccn3)cc2C1CCc1ccccc1)C(=O)N1CCn2nc(-c3ccccn3)cc2C1CCc1ccccc1 (mixture of isomers) (as salt: hydrochloride) [Example 32, (2R)-3-({(2R)-2-amino-3-oxo-3-[(4RS)-4-(2-phenylethyl)-2-pyridin-2-yl-6,7-dihydropyrazolo[1,5-a]pyrazin-5(4H)-yl]propyl}dithio)-1-oxo-1-[(4RS)-4-(2-phenylethyl)-2-pyridin-2-yl-6,7-dihydropyrazolo[1,5-a]pyrazin-5(4H)-yl]propan-2-amine hydrochloride]	232 to 234 °C (dec.)

— US20100222332A1, “PYRAZOLO-PYRAZINES DERIVATIVES USED AS G PROTEIN INHIBITORS” (Ipsen Pharma S.A.S., priority 2007, published 2010)
